# Values of other authors in PubChem BioAssay AID1259409 (Chemical Carcinogenesis Research Information System (CCRIS), 2018).
# Test system: rodent chemically induced tumor inhibition, incidence and multiplicity
# Assay: CCRIS tumor inhibitor studies
# Details: Carcinogen: N-METHYL-N'-NITRO-N-NITROSOGUANIDINE; 70-25-7; Dose [Inhibitor]: 1 MG/KG BW IN DEPOT FORM 1/2 D BEGINNING 1 WK POST LAST CARCINOGEN DOSE FOR DURATION OF STUDY (STUDY DURATION: 52 WK); Route [Inhibitor]: SUBCUTANEOUS; Species: RAT; Strain/Sex: WISTAR/MALE; Target Tissue: Type of Lesion: STOMACH: ADENOCARCINOMA; Dose [Carcinogen]: 50 UG/ML IN DRINKING WATER FOR 25 WK; Promoter: NONE USED
compound,measurement,value
CSCC[C@H](NC(=O)[C@@H](N)Cc1c[nH]c2ccccc12)C(=O)N[C@@H](CC(=O)O)C(=O)N[C@@H](Cc1ccccc1)C(N)=O,"tumour outcome (control, treated, inhibition, significance)","12/19 (63%), 6/19 (32%), 49%, p<0.05"
